Laboratory results published in patent US11964953B2, “Substituted aminothiazoles as DGKzeta inhibitors for immune activation” (Bayer Aktiengesellschaft, priority 2020, dated 2024).

target: human DGKζ (Homo sapiens (Human), UniProt Q13574); test: Human DGKζ kinase activity inhibition assay (ADP-Glo); format: biochemical; details: in vitro human DGKζ kinase activity inhibition assay; read-out: IC50
Experimental: Human DGKζ Kinase Activity Inhibition Assay. Human diacylglycerol kinase zeta (DGKζ) inhibitory activity of compounds of the present invention was quantified employing the human DGKζ kinase activity assay as described in the following paragraphs. In essence, the enzyme activity was measured by quantification of the adenosine-di-phosphate (ADP) generated as a co-product of the enzyme reaction via the “ADP-Glo™ Kinase Assay” kit from the company Promega. This detection system works as follows: In a first step the adenosine-tri-phosphate (ATP) not consumed in the kinase reaction is quantitatively converted to cyclic adenosine-mono-phosphate (cAMP) employing an adenylate cyclase (“ADP-Glo-reagent”), then the adenylate cyclase is stopped and the ADP generated in the kinase reaction is converted to ATP, which subsequently generates in a luciferase-based reaction a glow-luminescence signal (“Kinase Detection Reagent”). C-terminally FLAG-tagged, recombinant full-length human DGKζ (in house expressed in baculovirus infected insect cells, purified using anti-Flag pulldown and size exclusion chromatography) was used as enzyme. As an alternative, commercially available enzyme by Carnabio can be used. […] Subsequently, 22.55 volumes of a 510 mM solution of octyl-β-D-glucopyranoside (Sigma-Aldrich, Cat. #O8001-10G) in 50 mM MOPS buffer (pH 7.4) were added, and the mixture was sonicated in an ultrasonic bath for 20 s. […] Viewlux™ from Perkin-Elmer). The amount of emitted light was taken as a measure for the amount of ADP generated and thereby for the activity of the DGKζ.

human DGKζ, sequence (Q13574 other isoform, or with tags, fused parts or gaps): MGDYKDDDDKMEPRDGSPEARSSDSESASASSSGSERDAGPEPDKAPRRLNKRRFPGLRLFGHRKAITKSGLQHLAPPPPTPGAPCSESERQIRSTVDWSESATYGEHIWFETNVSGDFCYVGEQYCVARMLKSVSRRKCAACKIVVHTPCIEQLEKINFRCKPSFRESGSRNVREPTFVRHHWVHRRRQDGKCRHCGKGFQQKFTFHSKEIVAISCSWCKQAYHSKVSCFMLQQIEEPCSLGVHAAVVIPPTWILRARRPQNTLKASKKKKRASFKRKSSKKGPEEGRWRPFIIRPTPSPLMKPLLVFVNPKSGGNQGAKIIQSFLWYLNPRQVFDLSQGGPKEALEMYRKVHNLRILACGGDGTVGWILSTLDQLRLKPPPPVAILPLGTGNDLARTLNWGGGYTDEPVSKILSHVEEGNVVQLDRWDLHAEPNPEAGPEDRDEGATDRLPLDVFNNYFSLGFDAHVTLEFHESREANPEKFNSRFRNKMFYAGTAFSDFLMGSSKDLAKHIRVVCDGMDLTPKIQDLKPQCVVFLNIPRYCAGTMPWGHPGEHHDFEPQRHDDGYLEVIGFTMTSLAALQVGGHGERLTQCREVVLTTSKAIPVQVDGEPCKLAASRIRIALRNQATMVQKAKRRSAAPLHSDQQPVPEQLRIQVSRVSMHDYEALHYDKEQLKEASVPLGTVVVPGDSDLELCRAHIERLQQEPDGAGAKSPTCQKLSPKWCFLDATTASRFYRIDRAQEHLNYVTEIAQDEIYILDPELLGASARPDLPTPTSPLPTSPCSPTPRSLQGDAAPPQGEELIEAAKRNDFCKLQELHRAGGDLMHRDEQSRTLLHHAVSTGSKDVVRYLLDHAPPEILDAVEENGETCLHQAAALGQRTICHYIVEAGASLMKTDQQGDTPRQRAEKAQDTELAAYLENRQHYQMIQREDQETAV

Compound	IC50
CC(C(N)=O)N(c1ccc(F)cc1)c1nc(N)c(C(=O)c2ccc(OCC(=O)N3CCC[C@H]3C(N)=O)cc2)s1 (mixture of isomers) [Example 110, (2S)-1-[2-[4-[4-amino-2-(N-[2-amino-(1RS)-methyl-2-oxo-ethyl]-4-fluoro-anilino)thiazole-5-carbonyl]phenoxy]acetyl]pyrrolidine-2-carboxamide]	366 nM
CC(C(N)=O)N(c1ccc(F)cc1)c1nc(N)c(C(=O)c2ccc(C(=O)NC[C@H](C)O)cc2)s1 (mixture of isomers) [Example 263, 4-[4-amino-2-(N-(2-amino-1-methyl-2-oxo-ethyl)-4-fluoro-anilino)thiazole-5-carbonyl]-N-[(2S)-2-hydroxypropyl]benzamide (mixture of stereoisomers)]	539 nM
CC(C(N)=O)N(c1ccc(F)cc1)c1nc(N)c(C(=O)c2ccc(C(=O)NC[C@@H](C)O)cc2)s1 (mixture of isomers) [Example 265, 4-[4-amino-2-(N-(2-amino-1-methyl-2-oxo-ethyl)-4-fluoro-anilino)thiazole-5-carbonyl]-N-[(2R)-2-hydroxypropyl]benzamide (mixture of stereoisomers)]	459 nM
COc1ccc(N(c2nc(N)c(C(=O)c3ccccc3)s2)C(C)C(N)=O)c(C)c1 (racemic) [Example 1, rac-2-(N-(4-amino-5-benzoyl-thiazol-2-yl)-4-methoxy-2-methyl-anilino)propanamide]	946 nM
CC(C(N)=O)N(c1ccc(N(C)C)cc1)c1nc(N)c(C(=O)c2ccccc2)s1 (racemic) [Example 2, rac-2-[N-(4-amino-5-benzoyl-thiazol-2-yl)-4-(dimethylamino)anilino]propanamide]	935 nM
CC(C)Oc1ccc(N(c2nc(N)c(C(=O)c3ccccc3)s2)C(C)C(N)=O)cc1 (racemic) [Example 3, rac-2-(N-(4-amino-5-benzoyl-thiazol-2-yl)-4-isopropoxy-anilino)propanamide]	927 nM
CC(C(N)=O)N(c1nc(N)c(C(=O)c2ccccc2)s1)c1c(F)cc(F)cc1F (racemic) [Example 4, rac-2-(N-(4-amino-5-benzoyl-thiazol-2-yl)-2,4,6-trifluoro-anilino)propanamide]	833 nM
CC(C(N)=O)N(c1nc(N)c(C(=O)c2ccccc2)s1)c1ccc(F)cc1Br (racemic) [Example 5, rac-2-(N-(4-amino-5-benzoyl-thiazol-2-yl)-2-bromo-4-fluoro-anilino)propanamide]	757 nM
Cc1ccc(C(=O)c2sc(N(c3ccc(F)cc3)C(C)C(N)=O)nc2N)cn1 (racemic) [Example 6, rac-2-(N-[4-amino-5-(6-methylpyridine-3-carbonyl)thiazol-2-yl]-4-fluoro-anilino)propanamide]	740 nM
CC(C(N)=O)N(c1ccc(F)cc1)c1nc(N)c(C(=O)c2ccncc2)s1 (racemic) [Example 7, rac-2-(N-[4-amino-5-(pyridine-4-carbonyl)thiazol-2-yl]-4-fluoro-anilino)propanamide]	705 nM
CC(C(N)=O)N(c1ccc(F)cc1)c1nc(N)c(C(=O)c2ccccc2F)s1 (racemic) [Example 8, rac-2-(N-[4-amino-5-(2-fluorobenzoyl)thiazol-2-yl]-4-fluoro-anilino)propanamide]	618 nM
CC(C(N)=O)N(c1ccc(C#N)cc1)c1nc(N)c(C(=O)c2ccccc2)s1 (racemic) [Example 9, rac-2-(N-(4-amino-5-benzoyl-thiazol-2-yl)-4-cyano-anilino)propanamide]	536 nM
CC(C(N)=O)N(c1ccc(F)cc1)c1nc(N)c(C(=O)c2ccc(Cl)c(C(F)(F)F)c2)s1 (racemic) [Example 10, rac-2-(N-[4-amino-5-[4-chloro-3-(trifluoromethyl)benzoyl]thiazol-2-yl]-4-fluoro-anilino)propanamide]	425 nM
CC(C(N)=O)N(c1nc(N)c(C(=O)c2ccccc2)s1)c1ccc(F)cc1Cl (racemic) [Example 11, rac-2-(N-(4-amino-5-benzoyl-thiazol-2-yl)-2-chloro-4-fluoro-anilino)propanamide]	406 nM
CC(C(N)=O)N(c1ccc(F)cc1)c1nc(N)c(C(=O)c2cccc(C#N)c2)s1 (racemic) [Example 12, rac-2-(N-[4-amino-5-(3-cyanobenzoyl)thiazol-2-yl]-4-fluoro-anilino)propanamide]	364 nM

The next lines start with the values.

IC50	Compound
357 nM	CC(C(N)=O)N(c1ccc(N(C)C)c(Cl)c1)c1nc(N)c(C(=O)c2ccccc2)s1 (racemic) [Example 13, rac-2-[N-(4-amino-5-benzoyl-thiazol-2-yl)-3-chloro-4-(dimethylamino)anilino]propanamide]
334 nM	COc1ccc(C(=O)c2sc(N(c3ccc(F)cc3)C(C)C(N)=O)nc2N)cn1 (racemic) [Example 14, rac-2-(N-[4-amino-5-(6-methoxypyridine-3-carbonyl)thiazol-2-yl]-4-fluoro-anilino)propanamide]
266 nM	CNC(=O)c1ccc(C(=O)c2sc(N(c3ccc(F)cc3)C(C)C(N)=O)nc2N)cc1 (racemic) [Example 15, rac-4-[4-amino-2-(N-[2-amino-1-methyl-2-oxo-ethyl]-4-fluoro-anilino)thiazole-5-carbonyl]-N-methyl-benzamide]
283 nM	CC(C(N)=O)N(c1ccc(F)cc1)c1nc(N)c(C(=O)c2cccc(F)c2)s1 (racemic) [Example 16, rac-2-(N-[4-amino-5-(3-fluorobenzoyl)thiazol-2-yl]-4-fluoro-anilino)propanamide]
261 nM	COc1ccc(N(c2nc(N)c(C(=O)c3ccccc3)s2)C(C)C(N)=O)cc1Cl (racemic) [Example 17, rac-2-(N-(4-amino-5-benzoyl-thiazol-2-yl)-3-chloro-4-methoxy-anilino)propanamide]
207 nM	COc1ccc(N(c2nc(N)c(C(=O)c3ccc(F)cc3)s2)C(C)C(N)=O)cc1 (racemic) [Example 18, rac-2-(N-[4-amino-5-(4-fluorobenzoyl)thiazol-2-yl]-4-methoxy-anilino)propanamide]
200 nM	CC(C(N)=O)N(c1ccc(F)cc1)c1nc(N)c(C(=O)c2ccc(S(C)(=O)=O)cc2)s1 (racemic) [Example 19, rac-2-(N-[4-amino-5-(4-methylsulfonylbenzoyl)thiazol-2-yl]-4-fluoro-anilino)propanamide]
161 nM	CC(C(N)=O)N(c1ccc(F)cc1)c1nc(N)c(C(=O)c2ccc(-n3ccnc3)cc2)s1 (racemic) [Example 20, rac-2-(N-[4-amino-5-(4-imidazol-1-ylbenzoyl)thiazol-2-yl]-4-fluoro-anilino)propanamide]
142 nM	CC(C(N)=O)N(c1ccc(F)cc1)c1nc(N)c(C(=O)c2ccc(C#N)c(F)c2)s1 (racemic) [Example 21, rac-2-(N-[4-amino-5-(4-cyano-3-fluoro-benzoyl)thiazol-2-yl]-4-fluoro-anilino)propanamide]
130 nM	CC(C(N)=O)N(c1ccc(F)cc1)c1nc(N)c(C(=O)c2ccc(C#N)cc2F)s1 (racemic) [Example 22, rac-2-(N-[4-amino-5-(4-cyano-2-fluoro-benzoyl)thiazol-2-yl]-4-fluoro-anilino)propanamide]
130 nM	COc1ccc(C(=O)c2sc(N(c3ccc(F)cc3)C(C)C(N)=O)nc2N)c(F)c1 (racemic) [Example 23, rac-2-(N-[4-amino-5-(2-fluoro-4-methoxy-benzoyl)thiazol-2-yl]-4-fluoro-anilino)propanamide]
